US8592611B2, “Trioxane dimer sulfur compounds” (The Johns Hopkins University, priority 2008, dated 2013)

What was measured:
[1] = test system: chloroquine-sensitive P. falciparum (NF54); experiment: in vitro antimalarial activity, [3H]hypoxanthine incorporation; type: cell-based; conditions: Plasmodium falciparum
Text: To determine the antimalarial effect of the disclosed trioxane sulfur dimer compounds of Formula I, screening assays may be performed against chloroquine-sensitive P. falciparum (NF54). Using the methods described below, the IC50 values of these compounds may be determined.
Antimalarial activity may be determined by measuring the incorporation of [^3H]hypoxanthine by the methods of DesJardins and Milhous with the following modifications, see Desjardins, R. E.; Canfield, C. J.; Haynes, J. D.; Chulay, J. D., Antimicrob. Agents Chemother., 16:710 (1979); Milhous, W. K.; Weatherly, N. F.; Bowdre, J. H.; Desjardins, R., Antimicrob. Agents Chemother., 27:525 (1985). […]
Stock solutions (approximately 2.5 mg/mL of HPLC-purified or recrystallized test compound) are prepared in dimethyl sulfoxide (DMSO; Sigma-Aldrich #27,043-1). […] Cells may be harvested (Brandel MB-48R) onto GF-C glass filters (Brandel), and the filters washed five times with 3 mL water per sample spot, dried under a heat lamp, and counted (Beckman Model LS-6500) in scintillation cocktail (ICN Cytoscint).
Decays per minute (dpm) values may be downloaded and analyzed (Power Macintosh 7200/90; Microsoft Excel 5.0), to yield the mean and standard deviation at each drug concentration. […]

P388 leukemia = conditions: NCI Report on NSC 369397, tested on 25 Oct. 1983; cited from earlier work
[2] = test system: P. vivax and P. falciparum; conditions: 2099 cases of malaria (P. vivax and P. falciparum about 3:1), different dosage forms; cited from earlier work
[3] = test system: human HeLa cervical cancer cells; conditions: human HeLa cervical cancer cells in vitro; cited from earlier work

IC50 [1]	SMILES	activity against P388 leukemia (P388 leukemia)	clinical outcome [2]	IC50 [3]
7.7 nM	C[C@@H]1CC[C@H]2[C@@H](C)C(=O)O[C@@H]3O[C@]4(C)CC[C@@H]1[C@]32OO4 [artemisinin]	inactive	clinical cure of all patients	
	C[C@@H]1CC[C@H]2[C@@H](C)C(O)O[C@@H]3O[C@]4(C)CC[C@@H]1[C@]32OO4 (stereo partly shown) [dihydroartemisinin]			5000 to 10000 nM
